Key:
[1] = tested on: Lymphocytic Leukemia P388; experiment: "PS" test, Lymphocytic Leukemia P388 Protocol 1.200; assay type: in vivo; conditions: mice; for RANGE OF % T/C: "PS" test
Experimental: The in vivo "PS" tests were carried out on mice according to "Lymphocytic Leukemia P388--Protocol 1.200", published in Cancer Chemotherapy Reports, Part 3, Vol. 3, No. 2, page 9, (September 1972) with results reported in terms of percent survivals of test versus control animals (%T/C).
(§1) As one example, the "PS" and "Bl" tests noted above involved subcutaneous administration of the test compounds in simple water solution forms. It is expected that water solutions of bouvardin and deoxybouvardin would ordinarily be stabilized by addition of antioxidant substances.

Solubility in water = assay type: physicochemical
Text: as §1

Melanotic Melanoma B 16 = experiment: "Bl" test, Melanotic Melanoma B 16 Protocol 1.300; assay type: in vivo; conditions: mice, subcutaneous, water solution
Experimental: The in vivo "Bl" were carried out on mice according to "Melanotic Melanoma B 16--Protocol 1.300" (id., p. 11) with reporting and evaluation procedures identical to those of the "PS" test.
as §1

[2] = tested on: cells of human adenocarcinoma of the nasopharynx (KB); experiment: "KB" test, Cell Culture Screen KB Protocol 1.600; assay type: cell-based; conditions: 3 days after drug addition, average
Experimental: The in vitro "KB" tests were carried out according to "Cell Culture Screen KB--Protocol 1.600" (id., p. 17) using cells of human adenocarcinoma of the nasopharynx. Test results are expressed as the dose that inhibits cell growth to 50% of control growth by 3 days after drug addition.

Row | SMILES | "PS" test activity, % T/C ([1]; 0.04 to 2.0 mg/kg doses, subcutaneous, water solution) | Solubility in water (Solubility in water) | "Bl" test activity, % T/C (Melanotic Melanoma B 16; 0.25 to 8.0 mg/kg doses) | "KB" test ED 50 (dose that inhibits cell growth to 50% of control growth) [2] | RANGE OF % T/C ([1]; DOSE 0.04) | RANGE OF % T/C ([1]; DOSE 0.07) | RANGE OF % T/C ([1]; DOSE 0.11) | RANGE OF % T/C ([1]; DOSE 0.16) | RANGE OF % T/C ([1]; DOSE 0.25) | RANGE OF % T/C ([1]; DOSE 0.50) | RANGE OF % T/C ([1]; DOSE 1.00) | RANGE OF % T/C ([1]; DOSE 2.00) | "PS" test activity, % T/C (survival of test versus control animals) ([1]; dose levels 0.02 to 2.0 mg/kg, subcutaneous, water solution) | "Bl" test activity, % T/C (Melanotic Melanoma B 16; doses 0.12 to 2.0 mg/kg)
1 | COc1ccc(C[C@H]2C(=O)N[C@@H](C)C(=O)N(C)[C@H]3Cc4ccc(cc4)Oc4cc(ccc4O)C[C@@H](C(=O)N[C@H](C)C(=O)N[C@@H](C)C(=O)N2C)N(C)C3=O)cc1 [deoxybouvardin] | 142-216 % T/C | partially soluble in water | 133-175 % T/C | 1.9e-08 ng/mL |  |  |  |  |  |  |  |  |  | 
2 | COc1ccc(C[C@H]2C(=O)N[C@@H](C)C(=O)N(C)[C@@H]3C(=O)N(C)[C@@H](Cc4ccc(O)c(c4)Oc4ccc(cc4)[C@@H]3O)C(=O)N[C@H](C)C(=O)N[C@@H](C)C(=O)N2C)cc1 [bouvardin] |  | partially soluble in water |  | about 4.3×10^-7 μg/L | 134 % T/C | 139 % T/C | 150 to 164 % T/C | 158 % T/C | 161 to 188 % T/C | 135 to 186 % T/C | 148 to 217 % T/C | 167 to 205 % T/C | 135 to 217 % T/C | 134-152 % T/C

From patent US4226856A, “Preparation and use of bouvardin and deoxybouvardin” (University Patents, Inc., priority 1978, dated 1980)
